Data set [1] relates to P. falciparum TM91C235 (multidrug-resistant). As to the kind of experiment: In vitro chemosensitivity assay (pLDH), TM91C235 strain. It counts as cell-based. As to conditions: Plasmodium falciparum; 72 h incubation, pLDH method, mean of 3 experiments; read-out: P. falciparum IC50, TM91C235.
Data set [2] concerns P. berghei ANKA transmission stages in Anopheles stephensi. As to the kind of experiment: Transmission-blocking test, P. berghei/A. stephensi model. As to conditions: 50 mg/kg oral. The data set is classed as in vivo. How it is done:
(§1) (−)-AM1 was also tested in transmission-blocking and prophylactic studies using the P. berghei/A. stephensi model as described, with a few modifications.
For the transmission-blocking test, four BALB/c female mice (18–20 g) were infected i.p. with 10^7 P. berghei-infected red blood cells. Four days later, once confirmed for gametocyte carriage, two mice were treated with 50 mg/kg (−)-AM1, through the oral administration of 500 µL of a methylcellulose suspension, obtained by dissolving a 20 mg/mL ethanol stock solution in 0.5% methylcellulose to a final 9% ethanol concentration. Two mice received the vehicle only as controls. One hour after the treatment, mice were anesthetized and exposed to the bites of 100 sugar-starved female mosquitoes, at 20 °C. Ten days after the blood meal, samples of mosquito midguts from each treatment (n = 40) were dissected and P. berghei oocysts were manually counted using light microscopy at 400× magnification. Oocyst numbers were log-transformed and the geometric means were compared using the Student’s t-test.

Data set [3] in a line: Microsome stability and metabolism studies, rat. The data set is classed as in vitro ADME. As to conditions: (−)-AM1 1 μM, at 30 min. More on the design: key: +: Metabolic Products Detected In Vitro and In Vivo; ND: Not detectable. On the procedure: (§2) Samples from the metabolic stability and metabolism studies were analyzed under the following conditions: UPLC interfaced with a Premiere XE triple Quadrupole Waters for stability studies, and Bruker Daltonics Ion Trap HCT Ultra for metabolic studies. A gradient from 2% to 100% (Water, MeOH, 5 mM Ammonium Acetate) over 2 min (stability) or 12 min (metabolism) in a C18 BEH (dimensions 1 by 50 mm for stability and 2.1 by 100 mm for metabolism, 1.7 µm column, 45 °C temperature, flow rate 0.5 mL/min) was used. For stability studies, the detection was performed in MRM (ESI positive, Q1/Q3 330.16/152.00, Cone Voltage 45 V; Extractor 5 V; Capillary 3.4 kV), while for metabolism studies, analysis was performed in Auto MS/MS mode (ESI positive; Capillary 109 V; Dry Temp 350 °C; Nebulizer 30 psi; Dry gas 10 L/min; HV capillary 500 V; Mass Accu time 500 µs; Mass range MS scan 100–600 amu, MS/MS 50–450 amu).
(§3) For stability and metabolism studies, test compounds were dissolved in DMSO, diluted at the final concentration of 1 µM, and pre-incubated in duplicate for 10 min at 37 °C in potassium phosphate buffer, pH 7.4, 3 mM MgCl2, with rat, mouse, and human hepatic microsomes (Xenotech Europe, Pfungstadt, Germany) at the final concentration of 0.5 mg/mL. The reaction was then started by adding the cofactor mixture of NADP, Glc6P, and G6P-DH, in the presence of UDPGA 1 mM in human microsomes to promote glucuronide formation. Acetonitrile (with verapamil as internal standard) was added to the samples at the times time 0 and 30 min to stop the reaction. Samples were then centrifuged and the supernatants analysed and quantified by LC-MS/MS. Reference compounds of known metabolic stability, 7-ethoxycoumarin (7-EC) and propranolol, were used as controls.
(§4) The percentage of the area of test compounds remaining after 30 min incubation was calculated in respect to the area of compounds at time = 0 min. […] Samples were re-analyzed by acquiring the daughter scan of the potential metabolites found during the full scan acquisition.

For data set [4], the target named is CYP2C9 (Homo sapiens, UniProt P11712). Description: in vitro.
Data set [5] has as its system P. falciparum W-2 (CQ-R). More on the design: method as in PMID 22901673. As to conditions: 72 h incubation, pLDH method, mean of 3 experiments; data already published; cited from earlier work.
Data set [6] can be described thus: Pharmacokinetics in CD-1 mice after oral administration. As to conditions: mouse, in vivo.
The nature of data set [7]: Microsome stability and metabolism studies, mouse. It counts as in vitro ADME. Further details: key: +: Metabolic Products Detected In Vitro and In Vivo; ND: Not detectable. As to conditions: (−)-AM1 1 μM, at 30 min. On the procedure: as §2, §3, §4
Data set [8] concerns P. falciparum FCR3 (CQ-R). As to the kind of experiment: In vitro chemosensitivity assay (pLDH), FCR3 strain. As to conditions: Plasmodium falciparum, FCR3; 72 h incubation, pLDH method, mean of 3 experiments; read-out: P. falciparum IC50, FCR3. The data set is classed as cell-based.
In data set [9] the test system is P. falciparum D10 (CQ-S). Further details: method as in PMID 22901673. As to conditions: 72 h incubation, pLDH method, mean of 3 experiments; data already published; cited from earlier work.
Data set [10] deals with P. berghei. Description: Prophylactic test, P. berghei/A. stephensi model. The data set is classed as in vivo. As to conditions: 50 mg/kg per os for 4 days, infection by mosquito bites, days 5–9 post-infection. How it is done: as §1
For the prophylactic test, the experimental drugs were administered at 50 mg/kg per os for 4 consecutive days; 90 min after the last administration, mice were infected by 6–10 infective mosquito bites. Thick and thin Giemsa-stained smears were prepared and examined on days 5–10 post-infection to assess parasite density per μL of blood.

Data set [11] can be described thus: Metabolites in mouse plasma after oral treatment. The data set is classed as in vivo. Further details: key: +: Metabolic Products Detected In Vitro and In Vivo; ND: Not detectable. As to conditions: after 50 mg/kg (−)-AM1 oral gavage, at 120 min. How it is done: A representative chromatogram in the mouse and the MS spectra are shown in Figure S1 (Supplementary Materials), while the proposed structures of metabolites in all the species, together with the retention times, are shown in Table 3. In the same table, the metabolites found in mouse plasma after 50 mg/kg oral treatment are included. The retention times and [M + H]^+ of the metabolites are the same for all three species.
The parent [M + H]^+ = 330 and the metabolites [M + H]^+ = 346 and [M + H]^+ = 344 were also detected in the mouse plasma samples collected after oral treatment of CD1 mice with 50 mg/kg of (−)-AM1 (Figure S4).
Samples from the metabolic stability and metabolism studies were analyzed under the following conditions: UPLC interfaced with a Premiere XE triple Quadrupole Waters for stability studies, and Bruker Daltonics Ion Trap HCT Ultra for metabolic studies. A gradient from 2% to 100% (Water, MeOH, 5 mM Ammonium Acetate) over 2 min (stability) or 12 min (metabolism) in a C18 BEH (dimensions 1 by 50 mm for stability and 2.1 by 100 mm for metabolism, 1.7 µm column, 45 °C temperature, flow rate 0.5 mL/min) was used. […]

Chain of CYP2C9 (P11712 whole entry): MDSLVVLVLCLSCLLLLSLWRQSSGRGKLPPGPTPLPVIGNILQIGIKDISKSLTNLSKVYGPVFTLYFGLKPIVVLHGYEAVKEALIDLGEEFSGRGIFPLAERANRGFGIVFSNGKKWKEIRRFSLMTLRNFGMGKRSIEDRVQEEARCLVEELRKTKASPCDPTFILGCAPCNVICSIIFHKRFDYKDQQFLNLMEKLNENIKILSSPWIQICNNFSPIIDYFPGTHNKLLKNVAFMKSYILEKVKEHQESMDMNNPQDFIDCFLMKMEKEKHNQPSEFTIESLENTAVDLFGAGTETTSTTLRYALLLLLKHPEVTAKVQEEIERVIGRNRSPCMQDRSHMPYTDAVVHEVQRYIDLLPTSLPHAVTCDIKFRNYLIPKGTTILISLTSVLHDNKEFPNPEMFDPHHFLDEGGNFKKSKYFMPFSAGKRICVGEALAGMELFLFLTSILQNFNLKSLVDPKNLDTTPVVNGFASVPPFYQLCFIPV

By IC50 is commonly meant the midpoint of a concentration-inhibition curve. The inhibition is the percentage by which the read-out fell short of the control. Consider `Clc1ccc2c(NC[C@@H]3CCCN4CCCC[C@H]34)ccnc2c1` [(−)-AM1, 7-chloro-N-(((1S,9aR)-octahydro-1H-quinolizin-1-yl)methyl)quinolin-4-amine], for which the half-inhibitory concentration (IC50) in [1] is 16.7 nM; in data set [5], 53.7 nM; in [8], 23.3 nM; in data set [9], 24 nM. Besides, the “infection intensity, average number of oocysts per midgut” value in data set [2] (BALB/c mice, read after 10 days, control 39.17, p = 0.24) was 54.11 (CI95 39.77–68.45) oocysts. Moreover, in data set [2] (P. berghei/A. stephensi model), the transmission-blocking activity result was “does not show transmission-blocking or prophylactic activity”. Moreover, the “Metabolic products detected, in vitro microsomes, rat” value in [3] is listed as “+”. Besides, the inhibition at 3 µM in data set [4] is < 5%. The “dose proportionality of oral pharmacokinetics” value in data set [6] is on record as “dose proportionality was displayed”. The “Metabolic products detected, in vitro microsomes, mouse” value in data set [7] is “+”. Besides, the “parasitaemia versus control mice, prophylactic activity” value in [10] was “no significant differences in parasitaemia”. For the same compound, the “Metabolic products detected, in vivo plasma levels, mouse” value in [11] is on record as “+”.
